Assay results as given in patent publication US9187749B2, “Methods for modulating factor 12 expression” (Isis Pharmaceuticals, Inc., priority 2011, dated 2015).
e = 2'-O-(2-methoxyethyl) (MOE); d = 2'-deoxy (DNA)

Tests used:
[1] = tested on: mice; experiment: Vascular leakage, Evans Blue in plasma, captopril-induced (Example 4); type: in vivo, mouse; conditions: HOE-140 30 μg ip, percentage increase or decrease vs Group 1 PBS
Description: Groups 4, 5, 6, 7, 8, and 9 consisted of 8 mice each and were treated with 2.5 mg/kg, 5 mg/kg, 10 mg/kg, 20 mg/kg, 40 mg/kg, or 80 mg/kg (corresponding to 5 mg/kg, 10 mg/kg, 20 mg/kg, 40 mg/kg, 80 mg/kg, or 160 mg/kg per week), respectively, of ISIS 410944 administered subcutaneously twice a week for 3 weeks. At the end of the treatment period, the mice of all the groups were intraperitoneally administered 20 μg of captopril. Groups 4-9 served as the experimental treatment groups for examining the effect of varying doses of ISIS 410944 on captopril-induced vascular permeability.
All the groups were then injected with 30 mg/kg of Evans Blue solution in the tail vein. The mice were sacrificed 30 min after the Evans Blue solution administration and colons, feet, ears, and intestines were harvested. Blood samples were taken through cardiac puncture.
The blood drawn through cardiac puncture was immediately mixed with 3 times the volume of ice-cold ethanol. The solution was centrifuged at 15,000 g for 20 minutes at 4° C. to remove cell debris and precipitated plasma proteins. The ethanol extracts were further purified by ultra-filtration through a 10 kDa MWCO filter. The color intensity of the ethanol extracted plasma solution was then measured at OD620nm. The results are presented in Table 7 as percentage increase or decrease of the OD values of the Group 1 PBS control.

[2] = tested on: Factor 12 mRNA; experiment: Liver RT-PCR of Factor 12 mRNA, C1-INH ASO-induced angioedema model (Example 9); type: in vivo, mouse; conditions: all groups given ISIS 461756 12.5 mg/kg sc twice a week, test ASO 40 mg/kg sc twice a week 3 weeks, vs PBS control not treated with ISIS 461756
Description: (§1) Vascular permeability induced by ISIS 461756, an antisense oligonucleotide which targets murine C1 inhibitor mRNA, increases vascular permeability in mice and replicates the pathology of hereditary angioedema. The effect of ISIS 410944 on this model was evaluated.
(§2) One group of 8 mice was treated with 40 mg/kg ISIS 410944 administered subcutaneously twice a week for 3 weeks (weekly dose of 80 mg/kg). A second group of 8 mice was treated with 40 mg/kg of the control oligonucleotide, ISIS 141923, administered subcutaneously twice a week for 3 weeks (weekly dose of 80 mg/kg). A third group of 8 mice was treated with PBS administered subcutaneously twice a week for 3 weeks. On day 14, all the groups were treated with 12.5 mg/kg ISIS 461756 administered subcutaneously twice a week for 3 weeks (weekly dose of 25 mg/kg). A control group of mice was treated with PBS administered subcutaneously twice a week for 3 weeks but was not administered ISIS 461756.
(§3) At the end of the treatment period, all the groups were injected with 30 mg/kg of Evans Blue solution into the tail vein. The mice were sacrificed 30 min after the Evans Blue solution administration and colons, feet, ears, and intestines were harvested. The liver was also harvested for RNA analysis.
(§4) RNA was isolated from the liver for RT-PCR analysis of C1-INH and Factor 12 mRNAs. […]

[3] = tested on: mice; experiment: Evans Blue vascular permeability, ISIS 461756-induced model (Example 9); type: in vivo, mouse; conditions: all groups given ISIS 461756 12.5 mg/kg sc twice a week; test ASO 40 mg/kg sc twice a week 3 weeks; vs untreated PBS control
Description: as §1, §2, §3
The harvested tissues from the feet, colon, and intestine were placed in formamide solution overnight to leach out the Evans Blue dye. The formamide solution containing feet tissue was heated to 55° C. and left overnight. The color intensity of the dye-infused formamide solution was then measured at OD600nm. The data is presented in Table 20 as percent increase or reduction compared to the PBS control not treated with ISIS 461756.

[4] = tested on: C1-INH mRNA; experiment: Liver RT-PCR of C1-INH mRNA, C1-INH ASO-induced angioedema model (Example 9); type: in vivo, mouse; conditions: all groups given ISIS 461756 12.5 mg/kg sc twice a week, test ASO 40 mg/kg sc twice a week 3 weeks, vs PBS control not treated with ISIS 461756
Description: as §1, §2, §3, §4

[5] = tested on: Factor 12; experiment: Spectrozyme Factor 12a based amidolytic assay for Factor 12 activation in plasma (Example 8); type: in vivo; conditions: mouse plasma; for % F12 activation compared to the PBS control: dextran sulfate
Description: The effect of antisense inhibition of kallikrein (KLKB1) mRNA on Factor 12 protein activation was evaluated.
Group 1 consisted of 8 mice and was treated with PBS administered subcutaneously twice a week for 3 weeks. No other treatment was administered to Group 1 which served as a control group to measure Factor 12 activation.
Groups 2, 3, 4, 5, and 6 consisted of 8 mice each and were treated with 2.5 mg/kg, 5 mg/kg, 10 mg/kg, 20 mg/kg, or 40 mg/kg (corresponding to 5 mg/kg, 10 mg/kg, 20 mg/kg, 40 mg/kg, or 80 mg/kg per week), respectively of ISIS 482584 administered subcutaneously twice a week for 3 weeks. Groups 2-6 served as the treatment groups for measuring the effect of ISIS 482584 on Factor 12 activation.
At the end of the treatment period, plasma was harvested from the mice for the Spectrozyme® Factor 12a based amidolytic assay for Factor 12 in plasma.
Plasma (5 μL) was added to 85 μL of PBS with 1 ug/ml dextran sulfate (500 kDa) in a 96 well polypropelene microplate and the solution was incubated for 5 minutes at room temperature. Spectrozyme® FXIIa (10 μL of a 2 mM solution) and 0.2 mM KALLISTOP™ solution was added and the absorbance kinetic was measured at 405 nm. Factor 12 activation was measured in the linear phase of absorbance accumulation. The results are presented in Table 18 as a percentage of Factor 12 activation measured in the PBS control sample.

Row | Substance | Percent inhibition of mRNA expression, Factor 12 mRNA [2] [%] | Percent change in vascular permeability, Colon [3] [%] | Percent change in vascular permeability, Feet [3] [%] | Percent change in vascular permeability, Intestines [3] [%] | also measured
1 | HOE-140 |  |  |  |  | Percentage of OD620 nm of Evans Blue dye compared to the PBS basal control to measure vascular leakage, Plasma [1]: 70%
2 | ISIS 141923: control oligonucleotide, a 5-10-5 MOE gapmer with no known murine target, CCTTCCCTGAAGGTTCCTCC; SEQ ID NO: 38 (sugars from the 5' end e5 d10 e5, backbone and methylation of C not given here) | 0 | 2 | 80 | 14 | Percent inhibition of mRNA expression, C1-INH mRNA [4]: 79%
3 | ISIS 482584: 5-10-5 MOE gapmer targeting kallikrein (KLKB1), GGCATATTGGTTTTTGGAAT; SEQ ID NO: 39 (sugars from the 5' end e5 d10 e5, backbone and methylation of C not given here) |  |  |  |  | % F12 activation compared to the PBS control ([5]; 5 mg/kg/wk sc 3 weeks): 82%; % F12 activation compared to the PBS control ([5]; 10 mg/kg/wk sc 3 weeks): 63%; % F12 activation compared to the PBS control ([5]; 20 mg/kg/wk sc 3 weeks): 47%; % F12 activation compared to the PBS control ([5]; 40 mg/kg/wk sc 3 weeks): 24%; % F12 activation compared to the PBS control ([5]; 80 mg/kg/wk sc 3 weeks): 14%; activation of Factor 12 ([5]; 5-80 mg/kg/wk sc 3 weeks): decreased activation of Factor 12
4 | ISIS 461756: 5-10-5 MOE gapmer AAAGTGGTTGATACCCTGGG (SEQ ID NO: 37) which targets murine C1 inhibitor mRNA; induces vascular permeability (sugars from the 5' end e5 d10 e5, backbone and methylation of C not given here) | 0 | 13 | 70 | 27 | 
